Laboratory results as given in US6503935B1, “Imidazoles and related compounds as α1A agonists” (Abbott Laboratories, priority 1998, dated 2003).
Structures can show the parent of a compound that is named as a salt. Where two headings read alike, the source gives them in different places. Values belong to the compound of their own block, whether it stands above or below them.

Experiments:
[1] = molecular target: T1, α1A (rat submaxillary gland) (Rattus norvegicus, UniProt P43140); assay: Radioligand binding with [3H]-prazosin, α1A; details: rat submaxillary gland, [3H]-prazosin
T1 construct: α1A (rat submaxillary gland); from tissue; host or cells: rat submaxillary gland
T1 sequence (P43140 1-466): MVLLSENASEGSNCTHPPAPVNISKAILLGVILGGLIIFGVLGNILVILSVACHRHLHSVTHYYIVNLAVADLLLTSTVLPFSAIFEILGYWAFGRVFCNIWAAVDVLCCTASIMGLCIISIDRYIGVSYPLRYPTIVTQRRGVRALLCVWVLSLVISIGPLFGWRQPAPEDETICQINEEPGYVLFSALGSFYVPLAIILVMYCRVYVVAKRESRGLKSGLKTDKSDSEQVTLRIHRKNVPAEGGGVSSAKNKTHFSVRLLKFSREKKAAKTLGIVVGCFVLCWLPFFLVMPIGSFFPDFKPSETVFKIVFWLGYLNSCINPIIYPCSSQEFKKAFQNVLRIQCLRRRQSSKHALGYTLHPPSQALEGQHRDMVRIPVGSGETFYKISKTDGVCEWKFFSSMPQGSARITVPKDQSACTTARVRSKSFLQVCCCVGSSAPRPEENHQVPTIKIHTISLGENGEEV
Procedure: (§1) For purposes of discussing α1 adrenoceptor subtypes, the IUPHAR convention of using lower case letters to define molecular clones and upper case letters to indicate pharmacologically defined adrenoceptors has been followed. Compounds of formula I were evaluated in radioligand binding assays specific for α1A (rat submaxillary gland), α1b (hamster receptor expressed in mouse fibroblasts) and α1d (rat receptor expressed in mouse fibroblasts) using [^3H]-prazosin as the radioligand as described in Knepper, et al. J. Pharm.

[2] = molecular target: T2, α1d (rat receptor expressed in mouse fibroblasts) (Rattus norvegicus, UniProt P23944); assay: Radioligand binding with [3H]-prazosin, α1d; details: rat receptor expressed in mouse fibroblasts, [3H]-prazosin
T2 construct: expressed in transfected cells; host or cells: mouse fibroblasts
T2 sequence (P23944 1-561): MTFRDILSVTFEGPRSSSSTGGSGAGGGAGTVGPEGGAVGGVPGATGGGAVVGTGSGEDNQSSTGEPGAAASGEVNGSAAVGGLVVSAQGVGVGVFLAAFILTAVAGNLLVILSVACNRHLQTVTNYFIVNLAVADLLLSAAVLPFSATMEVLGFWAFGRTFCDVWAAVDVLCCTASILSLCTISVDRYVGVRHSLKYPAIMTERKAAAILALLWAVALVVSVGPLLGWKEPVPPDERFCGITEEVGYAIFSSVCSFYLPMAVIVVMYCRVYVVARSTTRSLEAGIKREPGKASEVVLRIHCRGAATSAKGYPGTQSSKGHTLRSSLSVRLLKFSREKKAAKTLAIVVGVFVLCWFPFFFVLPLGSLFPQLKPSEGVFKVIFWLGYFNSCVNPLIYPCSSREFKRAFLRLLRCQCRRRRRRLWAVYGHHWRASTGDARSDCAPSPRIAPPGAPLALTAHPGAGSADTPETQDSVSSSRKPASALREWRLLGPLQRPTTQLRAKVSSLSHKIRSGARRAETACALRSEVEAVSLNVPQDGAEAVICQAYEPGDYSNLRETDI
Procedure: as §1

[3] = molecular target: T3, α1b (hamster receptor expressed in mouse fibroblasts) (Mesocricetus auratus, UniProt P18841); assay: Radioligand binding with [3H]-prazosin, α1b
T3 construct: expressed in transfected cells; host or cells: mouse fibroblasts
T3 sequence (P18841 1-515): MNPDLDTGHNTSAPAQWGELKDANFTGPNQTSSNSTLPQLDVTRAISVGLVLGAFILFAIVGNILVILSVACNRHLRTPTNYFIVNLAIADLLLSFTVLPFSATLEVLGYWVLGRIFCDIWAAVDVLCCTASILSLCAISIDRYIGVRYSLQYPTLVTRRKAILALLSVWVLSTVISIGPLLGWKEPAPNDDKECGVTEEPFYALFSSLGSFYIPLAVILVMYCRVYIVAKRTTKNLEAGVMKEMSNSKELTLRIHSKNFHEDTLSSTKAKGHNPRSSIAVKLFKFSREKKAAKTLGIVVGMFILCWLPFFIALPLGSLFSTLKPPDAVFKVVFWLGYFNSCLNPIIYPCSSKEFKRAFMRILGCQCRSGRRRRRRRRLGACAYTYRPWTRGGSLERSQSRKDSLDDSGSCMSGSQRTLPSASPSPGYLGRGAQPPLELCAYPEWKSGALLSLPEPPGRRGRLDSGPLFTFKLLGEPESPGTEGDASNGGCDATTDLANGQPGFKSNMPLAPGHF
Procedure: as §1

α1B (rat spleen) = molecular target: T4, α1B (rat spleen) (Rattus norvegicus, UniProt P15823); assay: Agonist contraction of smooth muscle tissue, rat spleen; assay type: cell-based; details: rat spleen; for EC50: read-out: Agonist Tissue Response (pD2) α1B (rat spleen) (converted)
T4 construct: α1B (rat spleen) and α1D (rat aorta) receptors; from tissue; host or cells: rat spleen
T4 sequence (P15823 1-515): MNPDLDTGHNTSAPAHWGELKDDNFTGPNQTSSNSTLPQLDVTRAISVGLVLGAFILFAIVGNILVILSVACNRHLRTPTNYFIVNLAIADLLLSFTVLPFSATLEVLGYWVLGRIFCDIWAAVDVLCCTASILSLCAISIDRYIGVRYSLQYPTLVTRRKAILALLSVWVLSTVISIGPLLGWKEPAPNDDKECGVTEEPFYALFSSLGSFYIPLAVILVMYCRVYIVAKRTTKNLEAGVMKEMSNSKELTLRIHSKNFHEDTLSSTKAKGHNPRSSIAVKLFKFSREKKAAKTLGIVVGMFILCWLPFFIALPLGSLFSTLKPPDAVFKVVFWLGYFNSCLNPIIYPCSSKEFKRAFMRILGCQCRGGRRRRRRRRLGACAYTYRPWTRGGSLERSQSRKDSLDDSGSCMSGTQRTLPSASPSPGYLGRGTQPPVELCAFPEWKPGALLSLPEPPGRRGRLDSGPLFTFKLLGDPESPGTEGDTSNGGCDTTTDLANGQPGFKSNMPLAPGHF

α1D (rat aorta) = molecular target: T5, α1D (rat aorta) (Rattus norvegicus, UniProt P23944); assay: Agonist contraction of smooth muscle tissue, rat aorta; assay type: cell-based; details: rat aorta, endothelium removed; for EC50: read-out: Agonist Tissue Response (pD2) α1D (rat aorta) (converted)
T5 construct: α1B (rat spleen) and α1D (rat aorta) receptors; from tissue; host or cells: rat aorta strips, endothelium removed
T5 sequence (P23944 1-561): T2 sequence (P23944 1-561)

α1A (rabbit urethra) = molecular target: T6, α1A (rabbit urethra) (Oryctolagus cuniculus, UniProt O02824); assay: Agonist contraction of smooth muscle tissue, rabbit urethra; assay type: cell-based; details: rabbit urethra; for EC50: read-out: Agonist Tissue Response (pD2) α1A (rab ureth) (converted)
T6 construct: tested for α1A functional activity using rabbit urethra; from tissue; host or cells: rabbit urethra
T6 sequence (O02824 1-466): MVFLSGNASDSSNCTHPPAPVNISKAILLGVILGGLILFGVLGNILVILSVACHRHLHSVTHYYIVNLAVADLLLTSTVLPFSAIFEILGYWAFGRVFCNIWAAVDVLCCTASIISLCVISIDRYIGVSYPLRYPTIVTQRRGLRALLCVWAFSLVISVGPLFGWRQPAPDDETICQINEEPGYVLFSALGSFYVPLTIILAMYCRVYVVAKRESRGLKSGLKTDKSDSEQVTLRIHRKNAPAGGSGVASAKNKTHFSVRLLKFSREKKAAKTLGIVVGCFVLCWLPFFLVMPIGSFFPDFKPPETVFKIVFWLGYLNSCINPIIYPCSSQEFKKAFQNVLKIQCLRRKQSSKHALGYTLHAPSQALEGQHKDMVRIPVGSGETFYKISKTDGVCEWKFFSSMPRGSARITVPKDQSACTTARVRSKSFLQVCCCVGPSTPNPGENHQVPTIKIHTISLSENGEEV
Procedure: Most of the compounds were tested for α1A functional activity using rabbit urethra as follows. Female New Zealand white rabbits (2.0-3.5 Kg) were sedated with CO2 and decapitated. […] Subsequent experimental conditions were as described above for the other tissues. Agonist concentration response curves were cumulative except for the vas deferens assay in which the transient response made such measurements impractical.

[4] = read-out: Radioligand Binding Ki α1d (Rat)
[5] = hamster receptor expressed in mouse fibroblasts, [3H]-prazosin, read-out: Radioligand Binding Ki α1b (Hamster)
[6] = Radioligand Binding Ki α1d (Rat)

Compound: 5-Chloro-N-[5-(1H-imidazol-5-yl)-5,6,7,8-tetrahydro-1-naphthalenyl]-3-methyl-2,3-dihydro-1-benzothiophene-2-sulfonamide [Example 77]
- Ki [1]: 0.65 µM
- Ki [2, 4]: 0.111 µM
- Ki [3, 5]: 0.32 µM

Compound: O=S(=O)(CC(F)(F)F)Nc1cccc2c1CCCC2c1c[nH]cn1 (single isomer, unassigned; (-)) [Example 35, (−)-N-[5,6,7,8-tetrahydro-5-(1H-imidazol-4-yl)-1-naphthalenyl]-2,2,2-trifluoroethanesulfonamide]
- Ki [1]: 2.18 µM
- EC50 (α1B (rat spleen)): > 1000 µM
- EC50 (α1D (rat aorta)): > 1000 µM
- EC50 (α1A (rabbit urethra)): 81.3 µM

Compound: Cc1ccc(NS(C)(=O)=O)c2c1C(c1c[nH]cn1)CCC2 (centres unmarked) [Example 23, N-[5,6,7,8-tetrahydro-5-(1H-imidazol-4-yl)-4-methyl-1-naphthalenyl]methanesulfonamide, maleate]
- Ki [1]: 0.391 µM
- EC50 (α1B (rat spleen)): > 1000 µM
- Ki [2, 4]: 2.67 µM
- EC50 (α1D (rat aorta)): > 1000 µM
- EC50 (α1A (rabbit urethra)): 39.8 µM

Compound: CS(=O)(=O)Nc1ccc(O)c2c1CCCC2c1c[nH]cn1 (centres unmarked) [Example 24, N-[5,6,7,8-tetrahydro-4-hydroxy-5-(1H-imidazol-4-yl)-1-naphthalenyl]methanesulfonamide, maleate]
- Ki [1]: 0.712 µM
- EC50 (α1B (rat spleen)): > 1000 µM
- EC50 (α1D (rat aorta)): > 1000 µM
- EC50 (α1A (rabbit urethra)): 24.5 µM

Compound: CCS(=O)(=O)Nc1ccc(OC)c2c1CCCC2c1c[nH]cn1.O=C(O)C=CC(=O)O (centres unmarked) [Example 25]
- Agonist Tissue Response (pD2) α1B (rat spleen) (α1B (rat spleen)): 3.12
- Agonist Tissue Response (pD2) α1D (rat aorta) (α1D (rat aorta)): <3.00
- Agonist Tissue Response (pD2) α1A (rab ureth) (α1A (rabbit urethra)): 4.48

Compound: O=C(O)C=CC(=O)O.O=S(=O)(Nc1cccc2c1CCCC2c1c[nH]cn1)C1CC1 (centres unmarked) [Example 27, N-[5,6,7,8-tetrahydro-(1H-imidazol-4-yl)-1-naphthalenyl]cyclopropanesulfonamide, maleate]
- Ki [1]: 0.531 µM
- Ki [2, 4]: 2.67 µM
- Agonist Tissue Response (pD2) α1A (rab ureth) (α1A (rabbit urethra)): 5.25

Compound: CCS(=O)(=O)Nc1cccc(C(C)c2c[nH]cn2)c1 (centres unmarked) [Example 37, N-{3-[1-(1H-imidazol-4-yl)ethyl]phenyl}ethanesulfonamide, maleate]
- Ki [1]: 0.772 µM
- Ki [2, 6]: 0.452 µM
- EC50 (α1A (rabbit urethra)): 5.37 µM
- Ki [3]: 2.28 µM

Compound: CS(=O)(=O)Nc1cccc2c1CCCCC2c1c[nH]cn1 (centres unmarked) [Example 38, N-[5-(1H-imidazol-4-yl)-6,7,8,9-tetrahydro-5H-benzo[a]cyclohepten-1-yl]methanesulfonamide, maleate]
- Ki [1]: 1.36 µM
- Ki [2, 4]: 2.54 µM
- EC50 (α1A (rabbit urethra)): 19.1 µM

Compound: CS(=O)(=O)Nc1ccc(F)c(Cc2c[nH]cn2)c1 [Example 41, N-[4-fluoro-3-(1H-imidazol-4-ylmethyl)phenyl]methanesulfonamide, maleate]
- Ki [1]: 0.752 µM
- Ki [2, 6]: 0.348 µM
- EC50 (α1A (rabbit urethra)): 13.5 µM
- Ki [3]: 1.63 µM

Compound: CCS(=O)(=O)Nc1ccc(Cl)c2c1CCCC2c1c[nH]cn1 (centres unmarked) [Example 42, N-[4-chloro-5-(1H-imidazol-4-yl)-5,6,7,8-tetrahydro-1-naphthalenyl]ethanesulfonamide, maleate]
- Ki [1]: 0.359 µM
- Ki [2, 6]: 2.28 µM
- EC50 (α1A (rabbit urethra)): > 1000 µM

Compound: CS(=O)(=O)Nc1ccc(Cl)c2c1CCCC2c1c[nH]cn1 (centres unmarked) [Example 43, N-[4-chloro-5-(1H-imidazol-4-yl)-5,6,7,8-tetrahydro-1-naphthalenyl]methanesulfonamide, maleate]
- Ki [1]: 0.445 µM
- EC50 (α1B (rat spleen)): > 1000 µM
- Ki [2, 4]: 2.86 µM
- EC50 (α1D (rat aorta)): > 1000 µM
- EC50 (α1A (rabbit urethra)): 44.7 µM

- Ki [1]: 1.16 µM
- Ki [2, 4]: 5.3 µM
- Ki [3, 5]: 4.4 µM
Compound: O=S(=O)(CCCCl)Nc1cccc2c1CCCC2c1cnc[nH]1 (centres unmarked) [Example 65, 3-Chloro-N-[5-(1H-imidazol-5-yl)-5,6,7,8-tetrahydro-1-naphthalenyl]-1-propanesulfonamide]

- Ki [1]: 0.366 µM
- Ki [2, 4]: 0.458 µM
- Ki [3, 5]: 1.13 µM
Compound: Cn1cnc(S(=O)(=O)Nc2cccc3c2CCCC3c2cnc[nH]2)c1 (centres unmarked) [Example 66, N-[5-(1H-imidazol-5-yl)-5,6,7,8-tetrahydro-1-naphthalenyl]-1-methyl-1H-imidazole-4-sulfonamide]

- Ki [1]: 1.54 µM
- Ki [2, 4]: 2.29 µM
- Ki [3, 5]: 1.05 µM
Compound: COc1ccc(S(=O)(=O)Nc2cccc3c2CCCC3c2cnc[nH]2)cc1 (centres unmarked) [Example 71, N-[5-(1H-imidazol-5-yl)-5,6,7,8-tetrahydro-1-naphthalenyl]-4-methoxybenzenesulfonamide]

Compound: O=S(=O)(CC(F)(F)F)Nc1cccc(Cc2c[nH]cn2)c1 [Example 78, 2,2,2-trifluoro-N-[3-(1H-imidazol-4-ylmethyl)phenyl]ethanesulfonamide, maleate]
- EC50 (α1A (rabbit urethra)): 8.91 µM

Compound: N-[5,6,7,8-tetrahydro-5-(1H-imidazol-4-yl)-1-naphthalenyl]-2-methylethanesulfonamide, maleate [Example 18]
- Ki [1]: 1.14 µM
- Agonist Tissue Response (pD2) α1B (rat spleen) (α1B (rat spleen)): 4.85
- Ki [2, 4]: 2.05 µM
- Agonist Tissue Response (pD2) α1D (rat aorta) (α1D (rat aorta)): 4.96
- Agonist Tissue Response (pD2) α1A (rab ureth) (α1A (rabbit urethra)): 5.17
